Values after ≈ are worked out from the molar mass of the structure shown. Active and inactive are the calls of the source. No cut-off for these calls is given here.
Columns and labels:
[1] = system: Escherichia coli; assay: Antibacterial activity against Escherichia coli TG-1 transfected with Klebsiella pneumoniae full-length NDM-1 beta-lactamase gene; assay type: functional
[2] = system: Escherichia coli; assay: Antibacterial activity against Escherichia coli TG-1 transfected with Klebsiella pneumoniae full-length NDM-1 beta lactamase gene incubated in presence of meropenem; assay type: functional
[3] = system: Escherichia coli; assay: Synergistic antibacterial activity against Escherichia coli TG-1 transfected with Klebsiella pneumoniae full-length NDM-1 beta lactamase gene assessed as fractional inhibitory concentration index in presence of meropenem; assay type: functional
[4] = system: Escherichia coli; assay: Antibacterial activity against Escherichia coli BJE-4 expressing NDM-1 gene; assay type: functional
[5] = system: Escherichia coli; assay: Antibacterial activity against Escherichia coli BJE-4 expressing NDM-1 gene in presence of meropenem; assay type: functional
[6] = system: Escherichia coli; assay: Synergistic antibacterial activity against Escherichia coli BJE-4 expressing NDM-1 gene assessed as fractional inhibitory concentration index in presence of meropenem; assay type: functional
[7] = system: Escherichia coli; assay: Antibacterial activity against Escherichia coli producing NDM-1 and CTX-M-15 beta lactamases; assay type: functional
[8] = system: Escherichia coli; assay: Antibacterial activity against Escherichia coli producing NDM-1, CTX-M-15 and SHV-12 beta lactamases; assay type: functional
[9] = system: Citrobacter freundii; assay: Antibacterial activity against Citrobacter freundii producing NDM-1 and SHV-12 beta-lactamases; assay type: functional
[10] = system: Citrobacter freundii; assay: Antibacterial activity against Citrobacter freundii producing NDM-1, CTX-M-3 and KPC-2 beta-lactamases; assay type: functional
[11] = system: Enterobacter cloacae; assay: Antibacterial activity against Enterobacter cloacae producing NDM-1, CTX-M-14 and TEM-1 beta-lactamases; assay type: functional
[12] = system: Enterobacter cloacae; assay: Antibacterial activity against Enterobacter cloacae producing NDM-1, IMP-4 and TEM-1 beta-lactamases; assay type: functional
[13] = system: Escherichia coli; assay: Antibacterial activity against Escherichia coli TG-1; assay type: functional
[14] = system: Enterobacter cloacae; assay: Antibacterial activity against Enterobacter cloacae producing NDM-1, TEM-1 and SHV-12 beta-lactamases; assay type: functional
[15] = system: Klebsiella pneumoniae; assay: Antibacterial activity against Klebsiella pneumoniae producing NDM-1, KPC-2 and SHV-12 beta-lactamases; assay type: functional
[16] = system: Caco-2; assay: Antibacterial activity against Salmonella lomita SL131 infected in human Caco-2 cells assessed as reduction in bacterial survival rate at 64 ug/ml incubated for 6 hrs by agar dilution method; assay type: functional, cell-based; conditions: Salmonella enterica subsp. enterica serovar Lomita, dose 64.0 µg/ml
[17] = molecular target: Metallo-beta-lactamase type 2 (Bacteria, UniProt C7C422); assay: Inhibition of NDM-1 (unknown origin) using nitrocefin as substrate incubated for 15 to 60 mins by absorption based analysis
[18] = system: HEK-293T; assay: Cytotoxicity against HEK293T cells assessed as reduction in cell viability at 8 to 64 ug/ml incubated for 48 hrs by MTT assay; assay type: toxicity, cell-based; conditions: human, dose 8-64 µg/ml
[19] = system: Escherichia coli; assay: Antibacterial activity against Escherichia coli producing NDM-1 and CTX-M-15 beta-lactamases in presence of meropenem; assay type: functional
[20] = system: Escherichia coli; assay: Antibacterial activity against Escherichia coli producing NDM-1, CTX-M-15 and SHV-12 beta-lactamases in presence of meropenem; assay type: functional
[21] = system: Citrobacter freundii; assay: Antibacterial activity against Citrobacter freundii producing NDM-1 and SHV-12 in presence of meropenem; assay type: functional
[22] = system: Citrobacter freundii; assay: Antibacterial activity against Citrobacter freundii producing NDM-1, CTX-M-3 and KPC-2 beta-lactamases in presence of meropenem; assay type: functional
[23] = system: Enterobacter cloacae; assay: Antibacterial activity against Enterobacter cloacae producing NDM-1, CTX-M-14 and TEM-1 beta-lactamases in presence of meropenem; assay type: functional
[24] = system: Enterobacter cloacae; assay: Antibacterial activity against Enterobacter cloacae producing NDM-1, IMP-4 and TEM-1 beta-lactamases in presence of meropenem; assay type: functional
[25] = molecular target: Metallo-beta-lactamase type 2 (Bacteria) (UniProt C7C422); assay: Binding affinity to wild type NDM-1 (unknown origin) assessed as change in NDM-1 enzyme complex at 100 uM by ESI-MS analysis
[26] = system: Enterobacter cloacae; assay: Antibacterial activity against Enterobacter cloacae producing NDM-1, TEM-1 and SHV-12 beta-lactamase in presence of meropenem; assay type: functional
[27] = system: Klebsiella pneumoniae; assay: Antibacterial activity against Klebsiella pneumoniae producing NDM-1, KPC-2 and SHV-12 beta-lactamases in presence of meropenem; assay type: functional
[28] = system: Escherichia coli; assay: Synergistic antibacterial activity against Escherichia coli producing NDM-1 and CTX-M-15 beta-lactamases assessed as fractional inhibitory concentration index in presence of meropenem; assay type: functional
[29] = system: Escherichia coli; assay: Synergistic antibacterial activity against Escherichia coli producing NDM-1, CTX-M-15 and SHV-12 beta-lactamases assessed as fractional inhibitory concentration index in presence of meropenem; assay type: functional
[30] = system: Citrobacter freundii; assay: Synergistic antibacterial activity against Citrobacter freundii producing NDM-1 and SHV-12 beta-lactamases assessed as fractional inhibitory concentration index in presence of meropenem; assay type: functional
[31] = system: Citrobacter freundii; assay: Synergistic antibacterial activity against Citrobacter freundii producing NDM-1, CTX-M-3 and KPC-2 beta-lactamases assessed as fractional inhibitory concentration index in presence of meropenem; assay type: functional
[32] = system: Enterobacter cloacae; assay: Synergistic antibacterial activity against Enterobacter cloacae producing NDM-1, CTX-M-14 and TEM-1 beta-lactamases assessed as fractional inhibitory concentration index in presence of meropenem; assay type: functional
[33] = system: Enterobacter cloacae; assay: Synergistic antibacterial activity against Enterobacter cloacae producing NDM-1, IMP-4 and TEM-1 beta-lactamases assessed as fractional inhibitory concentration index in presence of meropenem; assay type: functional
[34] = system: Enterobacter cloacae; assay: Synergistic antibacterial activity against Enterobacter cloacae producing NDM-1, TEM-1 and SHV-12 beta-lactamases assessed as fractional inhibitory concentration index in presence of meropenem; assay type: functional
[35] = system: Klebsiella pneumoniae; assay: Synergistic antibacterial activity against Klebsiella pneumoniae producing NDM-1, KPC-2 and SHV-12 beta-lactamases assessed as fractional inhibitory concentration index in presence of meropenem; assay type: functional
[36] = system: Caco-2; assay: Antibacterial activity against Salmonella lomita SL131 infected in human Caco-2 cells assessed as reduction in bacterial survival rate at 32 to 64 ug/ml incubated for 6 hrs in presence of meropenem by agar dilution method; assay type: functional, cell-based; conditions: Salmonella enterica subsp. enterica serovar Lomita, dose 32-64 µg/ml

Metallo-beta-lactamase type 2, sequence (C7C422 whole entry): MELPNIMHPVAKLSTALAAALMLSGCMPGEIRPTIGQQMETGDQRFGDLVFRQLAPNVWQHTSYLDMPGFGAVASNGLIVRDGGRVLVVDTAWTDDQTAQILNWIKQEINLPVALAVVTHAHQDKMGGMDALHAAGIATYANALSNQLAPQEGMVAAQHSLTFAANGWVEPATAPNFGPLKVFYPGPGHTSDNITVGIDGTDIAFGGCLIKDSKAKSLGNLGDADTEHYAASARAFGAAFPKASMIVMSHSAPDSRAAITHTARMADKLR
Metallo-beta-lactamase type 2 (Bacteria), sequence (C7C422 whole entry): as above

O=c1c2ccccc2[se]n1CCNS(=O)(=O)c1ccc(Cl)c([N+](=O)[O-])c1
MIC [1]: > 64 µg/mL | MIC [2]: 16 µg/mL | fractional inhibitory concentration index (FICI) [3]: 0.5 | MIC [4]: > 16 µg/mL | MIC [5]: 8 µg/mL | fractional inhibitory concentration index (FICI) [6]: 0.625

C[C@@H](O)[C@H]1C(=O)N2C(C(=O)O)=C(S[C@@H]3CN[C@H](C(=O)N(C)C)C3)[C@H](C)[C@H]12 [MEROPENEM]
MIC [1]: > 64 µg/mL | MIC [4]: > 16 µg/mL | MIC [7]: > 64 µg/mL | MIC [8]: > 64 µg/mL | MIC [9]: 64 µg/mL (≈ 167 µM) | MIC [10]: > 64 µg/mL | MIC [11]: 64 µg/mL (≈ 167 µM) | MIC [12]: 64 µg/mL (≈ 167 µM) | MIC [13]: 0.5 µg/mL (≈ 1.3 µM) | MIC [14]: 64 µg/mL (≈ 167 µM) | MIC [15]: > 64 µg/mL | Activity [16]: inactive

CC(C)(C)OC(=O)NCCCCCn1[se]c2ccccc2c1=O
MIC [1]: > 64 µg/mL | MIC [2]: 16 µg/mL | fractional inhibitory concentration index (FICI) [3]: 0.5 | MIC [4]: > 16 µg/mL | MIC [5]: 8 µg/mL | fractional inhibitory concentration index (FICI) [6]: 0.625

CCS(=O)(=O)NCCn1[se]c2ccccc2c1=O
MIC [1]: > 64 µg/mL | MIC [2]: 16 µg/mL | fractional inhibitory concentration index (FICI) [3]: 0.5 | MIC [4]: > 16 µg/mL | MIC [5]: 8 µg/mL | fractional inhibitory concentration index (FICI) [6]: 0.625

COC(=O)c1ccc(-n2[se]c3ccccc3c2=O)cc1OC
MIC [1]: > 64 µg/mL | MIC [2]: ≤ 8 µg/mL | fractional inhibitory concentration index (FICI) [3]: 0.25 | MIC [4]: > 16 µg/mL | MIC [5]: 4 µg/mL | fractional inhibitory concentration index (FICI) [6]: 0.313 | IC50 [17]: 7.81 µM | Activity [18]: Non-Toxic

CCc1ccc(-n2[se]c3ccccc3c2=O)cc1
MIC [1]: > 64 µg/mL | MIC [2]: 64 µg/mL | fractional inhibitory concentration index (FICI) [3]: 2 | MIC [4]: > 16 µg/mL | MIC [5]: 8 µg/mL | fractional inhibitory concentration index (FICI) [6]: 0.625

CC(C)(C)OC(=O)NCCCCn1[se]c2ccccc2c1=O
MIC [1]: > 64 µg/mL | MIC [2]: 32 µg/mL | fractional inhibitory concentration index (FICI) [3]: 1 | MIC [4]: > 16 µg/mL | MIC [5]: 8 µg/mL | fractional inhibitory concentration index (FICI) [6]: 0.625

CC(C)(C)OC(=O)NCCCCCCn1[se]c2ccccc2c1=O
MIC [1]: > 64 µg/mL | MIC [2]: 4 µg/mL | fractional inhibitory concentration index (FICI) [3]: 0.125 | MIC [4]: > 16 µg/mL | MIC [5]: 4 µg/mL | fractional inhibitory concentration index (FICI) [6]: 0.313 | MIC [7]: > 64 µg/mL | MIC [8]: > 64 µg/mL | MIC [9]: > 64 µg/mL | MIC [10]: > 128 µg/mL | MIC [11]: > 128 µg/mL | MIC [12]: > 64 µg/mL | MIC [14]: > 64 µg/mL | MIC [15]: > 64 µg/mL | MIC [19]: 8 µg/mL | MIC [20]: 8 µg/mL | MIC [21]: 8 µg/mL | MIC [22]: 16 µg/mL | MIC [23]: 8 µg/mL | MIC [24]: 16 µg/mL | Activity [25]: Active | MIC [26]: 4 µg/mL | MIC [27]: 16 µg/mL | fractional inhibitory concentration index (FICI) [28]: 0.25 | fractional inhibitory concentration index (FICI) [29]: 0.25 | fractional inhibitory concentration index (FICI) [30]: 0.25 | fractional inhibitory concentration index (FICI) [31]: 0.375 | fractional inhibitory concentration index (FICI) [32]: 0.188 | fractional inhibitory concentration index (FICI) [33]: 0.5 | fractional inhibitory concentration index (FICI) [34]: 0.125 | fractional inhibitory concentration index (FICI) [35]: 0.5 | IC50 [17]: 26.8 µM | Activity [18]: Non-Toxic | Activity [16]: inactive | Activity [36]: Active

CC(C)(C)OC(=O)N1CCC(n2[se]c3ccccc3c2=O)CC1
MIC [1]: > 64 µg/mL | MIC [2]: 16 µg/mL | fractional inhibitory concentration index (FICI) [3]: 0.5 | MIC [4]: > 16 µg/mL | MIC [5]: 8 µg/mL | fractional inhibitory concentration index (FICI) [6]: 0.625

CN(C)S(=O)(=O)NCCn1[se]c2ccccc2c1=O
MIC [1]: > 64 µg/mL | MIC [2]: ≤ 8 µg/mL | fractional inhibitory concentration index (FICI) [3]: 0.25 | MIC [4]: > 16 µg/mL | MIC [5]: 8 µg/mL | fractional inhibitory concentration index (FICI) [6]: 0.625

COc1ccc(S(=O)(=O)NCCn2[se]c3ccccc3c2=O)cc1
MIC [1]: > 64 µg/mL | MIC [2]: ≤ 8 µg/mL | fractional inhibitory concentration index (FICI) [3]: 0.25 | MIC [4]: > 16 µg/mL | MIC [5]: 8 µg/mL | fractional inhibitory concentration index (FICI) [6]: 0.625

CS(=O)(=O)c1ccc(-n2[se]c3ccccc3c2=O)cc1
MIC [1]: > 64 µg/mL | MIC [2]: ≤ 8 µg/mL | fractional inhibitory concentration index (FICI) [3]: 0.25 | MIC [4]: > 16 µg/mL | MIC [5]: 8 µg/mL | fractional inhibitory concentration index (FICI) [6]: 0.625 | IC50 [17]: 7.29 µM

From ChEMBL document CHEMBL5532748, “Design, synthesis and antibacterial activity evaluation of ebselen derivatives in NDM-1 producing bacteria” (RSC Med Chem, 2024)
